Results reported in ChEMBL document CHEMBL1201862, “PubChem BioAssay data set” (2004).
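Each compound was tested at five concentrations against cells in 96-well plates for 48 hours. GI50: concentration for 50% inhibition of growth.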 Activity calls are given as the source filed them. Cut-off read from the data, not from the text of the source: active = GI50 up to about 1.1 µM and inactive = higher.

How the values were obtained:
Assay in all cases: growth of human tumour cells (NCI), 48 h
BT-549 = system: BT-549
SK-MEL-28 = system: SK-MEL-28
SK-MEL-5 = system: SK-MEL-5
786-0 = system: 786-0
OVCAR-4 = system: OVCAR-4
SNB-75 = system: SNB-75
HL-60 = system: HL-60
OVCAR-8 = system: OVCAR-8
PC-3 = system: PC-3
SR = system: SR
RPMI-8226 = system: RPMI-8226
HCT-116 = system: HCT-116
UACC-257 = system: UACC-257
A498 = system: A498
MCF7 = system: MCF7
EKVX = system: EKVX
NCI-H226 = system: NCI-H226
SF-268 = system: SF-268
IGROV-1 = system: IGROV-1
LOX IMVI = system: LOX IMVI
ACHN = system: ACHN
HOP-62 = system: HOP-62
HT-29 = system: HT-29
SF-295 = system: SF-295
MDA-MB-231 = system: MDA-MB-231
SW-620 = system: SW-620
HCT-15 = system: HCT-15
CCRF-CEM = system: CCRF-CEM
MDA-MB-435 = system: MDA-MB-435
CAKI-1 = system: CAKI-1
Hs-578T = system: Hs-578T
NCI-H23 = system: NCI-H23
UACC-62 = system: UACC-62
SK-MEL-2 = system: SK-MEL-2
SF-539 = system: SF-539
RXF 393 = system: RXF 393
M14 = system: M14
U-251 = system: U-251
HCC 2998 = system: HCC 2998
K562 = system: K562
HOP-92 = system: HOP-92
NCI-H460 = system: NCI-H460
TK-10 = system: TK-10
KM12 = system: KM12
DU-145 = system: DU-145
MOLT-4 = system: MOLT-4
COLO 205 = system: COLO 205
SK-OV-3 = system: SK-OV-3
SNB-19 = system: SNB-19
NCI/ADR-RES = system: NCI/ADR-RES
T47D = system: T47D
UO-31 = system: UO-31
Malme-3M = system: Malme-3M
OVCAR-3 = system: OVCAR-3
NCI-H522 = system: NCI-H522
OVCAR-5 = system: OVCAR-5
SN12C = system: SN12C
A549 = system: A549

SMILES: CCOC(=O)c1nc2ccc(C(F)(F)F)cc2nc1Oc1ccc(C#N)cc1
- GI50 (BT-549): 18.8 µM (inactive)
- GI50 (SK-MEL-28): 43.1 µM (inactive)
- GI50 (SK-MEL-5): 38.3 µM (inactive)
- GI50 (786-0): 18 µM (inactive)
- GI50 (OVCAR-4): 29.6 µM (inactive)
- GI50 (SNB-75): 14.5 µM (inactive)
- GI50 (HL-60): > 100 µM (inactive)
- GI50 (OVCAR-8): 19.6 µM (inactive)
- GI50 (PC-3): 17.3 µM (inactive)
- GI50 (SR): 81.5 µM (inactive)
- GI50 (RPMI-8226): > 100 µM (inactive)
- GI50 (HCT-116): 48.5 µM (inactive)
- GI50 (UACC-257): 25.5 µM (inactive)
- GI50 (A498): 23.3 µM (inactive)
- GI50 (MCF7): 18.2 µM (inactive)
- GI50 (EKVX): 14 µM (inactive)
- GI50 (NCI-H226): 11.3 µM (inactive)
- GI50 (SF-268): 15.5 µM (inactive)
- GI50 (IGROV-1): 14.5 µM (inactive)
- GI50 (LOX IMVI): 39.6 µM (inactive)
- GI50 (ACHN): 29.9 µM (inactive)
- GI50 (HOP-62): 15.5 µM (inactive)
- GI50 (HT-29): 23.3 µM (inactive)
- GI50 (SF-295): 14.8 µM (inactive)
- GI50 (MDA-MB-231): 12.9 µM (inactive)
- GI50 (SW-620): 40.3 µM (inactive)
- GI50 (HCT-15): 38.4 µM
- GI50 (CCRF-CEM): > 100 µM (inactive)
- GI50 (MDA-MB-435): 42.9 µM (inactive)
- GI50 (CAKI-1): 20.3 µM (inactive)
- GI50 (Hs-578T): 14.3 µM (inactive)
- GI50 (NCI-H23): 40.3 µM (inactive)
- GI50 (UACC-62): 19.1 µM (inactive)
- GI50 (SK-MEL-2): 15.7 µM (inactive)
- GI50 (SF-539): 19.5 µM (inactive)
- GI50 (RXF 393): 20 µM (inactive)
- GI50 (M14): 18.5 µM (inactive)
- GI50 (U-251): 26.3 µM (inactive)
- GI50 (HCC 2998): 61.4 µM (inactive)
- GI50 (K562): > 100 µM (inactive)
- GI50 (HOP-92): 17 µM (inactive)
- GI50 (NCI-H460): 46.7 µM (inactive)
- GI50 (TK-10): 30.1 µM (inactive)
- GI50 (KM12): 23.6 µM (inactive)
- GI50 (DU-145): 18.5 µM (inactive)
- GI50 (MOLT-4): > 100 µM (inactive)
- GI50 (COLO 205): 27.4 µM (inactive)
- GI50 (SK-OV-3): 15.7 µM (inactive)
- GI50 (SNB-19): 17.7 µM (inactive)
- GI50 (NCI/ADR-RES): 18.2 µM (inactive)
- GI50 (T47D): 28.4 µM (inactive)
- GI50 (UO-31): 40.3 µM (inactive)

SMILES: Clc1ccc(Cn2cc(/C=N/n3cnnc3)c3ccccc32)cc1
- GI50 (BT-549): 29.3 µM (inactive)
- GI50 (SK-MEL-28): > 100 µM (inactive)
- GI50 (SK-MEL-5): 19.5 µM (inactive)
- GI50 (786-0): 57.9 µM (inactive)
- GI50 (OVCAR-4): 33.5 µM (inactive)
- GI50 (SNB-75): 21.1 µM (inactive)
- GI50 (HL-60): 40.6 µM (inactive)
- GI50 (OVCAR-8): 40.4 µM (inactive)
- GI50 (PC-3): 52.1 µM (inactive)
- GI50 (SR): 39.9 µM (inactive)
- GI50 (RPMI-8226): 28.1 µM (inactive)
- GI50 (Malme-3M): 89.3 µM (inactive)
- GI50 (HCT-116): 31.8 µM (inactive)
- GI50 (UACC-257): 46.5 µM (inactive)
- GI50 (A498): 1.49 µM (inactive)
- GI50 (MCF7): 28.4 µM (inactive)
- GI50 (EKVX): 20.6 µM (inactive)
- GI50 (NCI-H226): 1.1 µM (active)
- GI50 (OVCAR-3): 86.5 µM (inactive)
- GI50 (SF-268): 45.9 µM (inactive)
- GI50 (IGROV-1): 24.1 µM (inactive)
- GI50 (LOX IMVI): 54.6 µM (inactive)
- GI50 (ACHN): 51.1 µM (inactive)
- GI50 (HOP-62): 74.3 µM (inactive)
- GI50 (HT-29): > 100 µM (inactive)
- GI50 (SF-295): 33.3 µM (inactive)
- GI50 (MDA-MB-231): 20.4 µM (inactive)
- GI50 (NCI-H522): 23.2 µM (inactive)
- GI50 (OVCAR-5): 11.7 µM (inactive)
- GI50 (SW-620): > 100 µM (inactive)
- GI50 (HCT-15): 60.1 µM
- GI50 (CCRF-CEM): 73.6 µM (inactive)
- GI50 (MDA-MB-435): 83.9 µM (inactive)
- GI50 (CAKI-1): 21.5 µM (inactive)
- GI50 (Hs-578T): 37.1 µM (inactive)
- GI50 (NCI-H23): 29.3 µM (inactive)
- GI50 (UACC-62): 29 µM (inactive)
- GI50 (SK-MEL-2): 26.7 µM (inactive)
- GI50 (SF-539): 40.5 µM (inactive)
- GI50 (RXF 393): 16.4 µM (inactive)
- GI50 (M14): 57 µM (inactive)
- GI50 (U-251): 37.8 µM (inactive)
- GI50 (HCC 2998): 14.4 µM (inactive)
- GI50 (K562): 22.5 µM (inactive)
- GI50 (HOP-92): 14.6 µM (inactive)
- GI50 (NCI-H460): 11.1 µM (inactive)
- GI50 (TK-10): 4.81 µM (inactive)
- GI50 (SN12C): 45.9 µM (inactive)
- GI50 (KM12): 70.3 µM (inactive)
- GI50 (DU-145): > 100 µM (inactive)
- GI50 (MOLT-4): 63.8 µM (inactive)
- GI50 (COLO 205): 18.5 µM (inactive)
- GI50 (SK-OV-3): 42.6 µM (inactive)
- GI50 (A549): 41.8 µM (inactive)
- GI50 (SNB-19): 56 µM (inactive)
- GI50 (NCI/ADR-RES): 35 µM (inactive)
- GI50 (T47D): 11.8 µM (inactive)
- GI50 (UO-31): 30.5 µM (inactive)
